{"source": "patent US11186588B2", "about": "(AYUMI PHARMACEUTICAL CORPORATION, priority 2017, dated 2021)", "key": {"NF-κB": {"test_system": "NF-κB", "test": "NF-κB reporter gene assay (TNF-α stimulated A549/NF-κB-luc cells)", "format": "cell-based", "conditions": "Homo sapiens, TNF-α stimulation", "outline": "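A549 cells stably carrying an NF-κB luciferase reporter were preincubated with compound for 1 h, then stimulated with TNF-α for 3 h. Luminescence was read with Steady-Glo, and inhibition was scaled between blank and DMSO control wells. IC50 was obtained by curve fitting.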"}, "[1]": {"test": "Pharmacokinetics test in rats (oral administration)", "format": "in vivo, LEW/CrlCrlj rats", "description": "In order to evaluate the transition of plasma concentration of the present compound after oral administration, pharmacokinetics was evaluated in rats. The specific method is described below.\nAppropriate amounts of Example 71 and various salts thereof were weighed, triturated with an agate mortar, and suspended or dissolved in 1% methyl cellulose solution to 2 mg/mL (as a converted quantity of Example 71 considering the correction of purify).\nLEW/CrlCrlj rats (male, purchased form Charles River Laboratories Japan, Inc.) were weighted, a random number based on the measured body weight was used to avoid difference in average body weight among groups, and the rats were divided into groups, wherein each groups contained 4 rats. The rats were manually held in hands and forced orally administered each administration solution comprising the compound at a dose of 5 mL/kg into stomach using a feeding needle. At 0.5, 1, 3, 6 and 24 hours after the administration of each administration solution comprising the compound, the rats were manually held in hands, and blood was collected from the jugular vein or subclavian vein using a heparin-treated injection syringe. The obtained blood was centrifuged at 1,500 G for 10 minutes, and plasma was collected as an actual sample. In addition, plasma was collected from rats before the administration of the compound in the same manner, which was used as blank plasma. The collected actual samples and blank plasma were stored in a freezer set at −70° C. until the measurement of the compound concentration. To 20 μL of each actual sample were added 20 μL of acetonitrile (available from Kishida Chemical Co., Ltd., Cat No. 140-00401), 100 μL of MilliQ water and 20 μL of the internal standard solution to prepare an analytical sample. In addition, to 20 μL of blank plasma were added 20 μL or 40 μL of acetonitrile (available from Kishida Chemical Co., Ltd., Cat No. 140-00401) and 100 μL of MilliQ water (a blank sample or a zero sample, respectively). A standard sample for a calibration curve was prepared by mixing 20 μL of blank plasma, 20 μL of the standard solution for a calibration curve in each concentration, 100 μL of MilliQ water and 20 μL of the internal standard solution. Whole amount of the prepared each sample was applied to a diatomaceous earth column for liquid-liquid extraction (available from Biotage, Cat No. 820-0200), tert-butyl methyl ether (available from Kanto Chemical Co., Inc., Cat No. 04418-5B) was added and eluted by natural dropping, and the obtained eluate was concentrated to dryness under a nitrogen stream. The residue was dissolved in the re-dissolved solution and 10 μL of each sample was injected into the LC/MS/MS apparatus.\nLC/MS/MS analysis was carried out under the following conditions. Analytical column: Hydrosphere C18, 3 μm, 2.0 mm I.D.×50 mm (from YMC, Cat No. HS12S03-0502WT)\nFlow rate: 0.3 mL/min. Column temperature: 50° C. Peak area calculation, peak area ratio calculation, preparation of calibration and quantification used in calculating the concentration for the LC/MS/MS analysis were carried out by Analyst ver.1.6.2 (available from AB Sciex). In addition, by using the obtained concentration measurement results, these were analyzed by Non-compartmental model of a pharmacokinetics analysis program WinNonlin ver.6.1 (Pharsight Corporation), and the pharmacokinetics parameter was calculated."}, "[2]": {"conditions": "male, LEW/CrlCrlj, rat, plasma, 10 mg/kg, oral 2 mg/mL solution at 5 mL/kg, mean n = 4"}}, "data": [{"smiles": "Cc1sc2c(c1C)C(c1ccc(Cl)cc1)=NN(Cc1ccccn1)c1nnc(C)n1-2", "note": "[Example 5, 4-(4-chlorophenyl)-2,3,9-trimethyl-6-(pyridin-2-ylmethyl)-6H-thieno[2,3-e][1,2,4]triazolo[3,4-c][1,2,4]triazepine]", "values": [{"measurement": "IC50", "setting": "NF-κB", "value": 27.5, "unit": "nM"}]}, {"smiles": "Cc1sc2c(c1C)C(c1ccc(Cl)cc1)=NN(Cc1cccnc1F)c1nnc(C)n1-2", "note": "[Example 25, 4-(4-chlorophenyl)-6-((2-fluoropyridin-3-yl)methyl)-2,3,9-trimethyl-6H-thieno[2,3-e][1,2,4]triazolo[3,4-c][1,2,4]triazepine]", "values": [{"measurement": "IC50", "setting": "NF-κB", "value": 50.3, "unit": "nM"}]}, {"smiles": "Cc1sc2c(c1C)C(c1ccccc1)=NN(Cc1ccccn1)c1nnc(C)n1-2", "note": "[Example 31, 2,3,9-trimethyl-4-phenyl-6-(pyridin-2-ylmethyl)-6H-thieno[2,3-e][1,2,4]triazolo[3,4-c][1,2,4]triazepine]", "values": [{"measurement": "IC50", "setting": "NF-κB", "value": 150, "unit": "nM"}]}, {"smiles": "Cc1sc2c(c1C)C(c1ccc(Cl)cc1)=NN(Cc1cccnc1Cl)c1nnc(C)n1-2", "note": "[Example 38, 4-(4-chlorophenyl)-6-((2-chloropyridin-3-yl)methyl)-2,3,9-trimethyl-6H-thieno[2,3-e][1,2,4]triazolo[3,4-c][1,2,4]triazepine]", "values": [{"measurement": "IC50", "setting": "NF-κB", "value": 106, "unit": "nM"}]}, {"smiles": "CC(=O)Nc1ccc(C2=NN(Cc3cccnc3)c3nnc(C)n3-c3sc(C)c(C)c32)cc1", "note": "[Example 71, N-(4-(2,3,9-trimethyl-6-(pyridin-3-ylmethyl)-6H-thieno[2,3-e][1,2,4]triazolo[3,4-c][1,2,4]triazepin-4-yl)phenyl)acetamide]", "values": [{"measurement": "IC50", "setting": "NF-κB", "value": 634, "unit": "nM"}, {"measurement": "concentration at 0.5 h", "setting": "[1]; male, LEW/CrlCrlj, rat, 10 mg/kg, plasma, 0.5 h after oral 2 mg/mL solution at 5 mL/kg, mean n = 4, read-out: Concentration (ng/mL), sampling time 0.5 h", "value": 22.1, "unit": "ng/mL"}, {"measurement": "concentration at 1 h", "setting": "[1]; male, LEW/CrlCrlj, rat, 10 mg/kg, plasma, 1 h after oral 2 mg/mL solution at 5 mL/kg, mean n = 4, read-out: Concentration (ng/mL), sampling time 1 h", "value": 14.8, "unit": "ng/mL"}, {"measurement": "concentration at 3 h", "setting": "[1]; male, LEW/CrlCrlj, rat, 10 mg/kg, plasma, 3 h after oral 2 mg/mL solution at 5 mL/kg, mean n = 4, read-out: Concentration (ng/mL), sampling time 3 h", "value": 4.23, "unit": "ng/mL"}, {"measurement": "concentration at 6 h", "setting": "[1]; male, LEW/CrlCrlj, rat, 10 mg/kg, plasma, 6 h after oral 2 mg/mL solution at 5 mL/kg, mean n = 4, read-out: Concentration (ng/mL), sampling time 6 h", "value": 1.46, "unit": "ng/mL"}, {"measurement": "AUC(0-inf)", "setting": "[1]; [2]", "value": 61.8, "unit": "ng·h/mL"}, {"measurement": "AUC(0-t)", "setting": "[1]; [2]", "value": 42.3, "unit": "ng·h/mL"}, {"measurement": "half-life", "setting": "[1]; [2]", "value": 1.31, "unit": "h"}, {"measurement": "Cmax", "setting": "[1]; male, LEW/CrlCrlj, rat, plasma, 10 mg/kg, oral 2 mg/mL solution at 5 mL/kg, mean n = 4, read-out: Cmax", "value": 22.4, "unit": "ng/mL"}, {"measurement": "MRT", "setting": "[1]; male, LEW/CrlCrlj, rat, plasma, 10 mg/kg, oral 2 mg/mL solution at 5 mL/kg, mean n = 4, read-out: MRT", "value": 1.82, "unit": "h"}, {"measurement": "Tmax", "setting": "[1]; male, LEW/CrlCrlj, rat, plasma, 10 mg/kg, oral 2 mg/mL solution at 5 mL/kg, mean n = 4, read-out: Tmax", "value": 0.75, "unit": "h"}, {"measurement": "Kel", "setting": "[1]; oral 2 mg/mL solution at 5 mL/kg, mean n = 4", "value": 0.55, "unit": "h⁻¹"}]}]}
